Results as given in US12171230B2, “Herbicidal compositions” (Bayer Aktiengesellschaft, priority 2018, dated 2024).

Key:
Format in all cases: in vivo
Bidens pilosa = assay: Post-emergence herbicidal action against Bidens pilosa
Description: (§1) When the observed efficacies exceed the formal sum total of the values of the tests with individual applications, they also exceed the expected value according to Colby, which is calculated using the formula below and is likewise regarded as an indication of synergism (cf. S. R. Colby; in Weeds 15 (1967) p. 20 to 22): E^C=A+B−([…])
(§2) Here: • A=efficacy of the active compound (A) in % at an application rate of a g a.i./ha; • B=efficacy of the active compound (B) in % at an application rate of b g a.i./ha; • E^C=expected value of the effect of the combination (A)+(B) in % at the combined application rate a+b g a.i./ha.
(§3) Seeds or rhizome pieces of mono- and dicotyledonous weeds are placed in sandy loam in pots, covered with soil and grown in a greenhouse under good growth conditions (temperature, air humidity, water supply). Three weeks after sowing, the test plants were treated at the three-leaf stage with the compositions according to the invention. The compositions according to the invention formulated as spray powders or as emulsion concentrates were sprayed onto the green plant parts in various dosages with an application rate of 300 to 800 l/ha of water (equivalent). After the test plants have been left to stand in the greenhouse under optimal growth conditions for about 3 to 4 weeks, the action of the preparations is scored visually in comparison to untreated controls. The compositions according to the invention also have good post-emergence herbicidal activity against a broad spectrum of economically important gramineous and broadleaf weeds.

Digitaria sanguinalis = assay: Post-emergence herbicidal action against Digitaria sanguinalis; conditions: for Herbicidal action: 21 DAT
Description: as §1, §2, §3

Centaurea cyano = assay: Post-emergence herbicidal action against Centaurea cyano
Description: Seeds or rhizome pieces of mono- and dicotyledonous weeds are placed in sandy loam in pots, covered with soil and grown in a greenhouse under good growth conditions (temperature, air humidity, water supply). Three weeks after sowing, the test plants were treated at the three-leaf stage with the compositions according to the invention. The compositions according to the invention formulated as spray powders or as emulsion concentrates were sprayed onto the green plant parts in various dosages with an application rate of 300 to 800 l/ha of water (equivalent).

Matricaria inodora = assay: Post-emergence herbicidal action against Matricaria inodora
[1] = test system: Lolium rigidum (resistant biotype); assay: Post-emergence herbicidal action against Lolium rigidum (resistant biotype)
Source text: (§4) The following abbreviations are used in the description and the tables that follow: • g of a.i./ha=grams of active substance (active ingredient) (=100% active compound) per hectare; • The sum total of the effects of the individual applications is reported under E^A; • expected values according to Colby are each reported under E^C.
(§5) The rating period is reported in days after application (DAT).

Phalaris minor [2] = assay: Post-emergence herbicidal action against Phalaris minor; conditions: 15 g of a.i./ha
Source text: as §4, §5

Alopecurus myosuroides [3] = assay: Post-emergence herbicidal action against Alopecurus myosuroides; conditions: 1.7 g of a.i./ha
Source text: as §4, §5

Amaranthus palmeri = assay: Post-emergence herbicidal action against Amaranthus palmeri; conditions: Amaranthus palmeri, post-emergence, 504 h
Description: as §1, §2, §3

Poa annua = assay: Post-emergence herbicidal action against Poa annua; conditions: for Herbicidal action in [%] 28 DAT against Poa annua: post-emergence
Description: as §1, §2, §3

Alopecurus myosuroides [4] = assay: Post-emergence herbicidal action against Alopecurus myosuroides
Bromus sterilis = assay: Post-emergence herbicidal action against Bromus sterilis
Lolium rigidum = assay: Post-emergence herbicidal action against Lolium rigidum
[5] = test system: Lolium rigidum (resistant biotype); assay: Post-emergence herbicidal action against Lolium rigidum (resistant biotype); remark: listed apart in the source
Phalaris minor [6] = assay: Post-emergence herbicidal action against Phalaris minor
Galium aparine = assay: Post-emergence herbicidal action against Galium aparine; conditions: for Herbicidal action in [%] 28 DAT against Galium aparine: post-emergence
Description: as §1, §2, §3

Structure (SMILES): CP(=O)(O)CCC(N)C(=O)O (racemic) [(B7.4) Glufosinate-]
- Herbicidal action (Bidens pilosa; 21 DAT, 360 g a.i./ha): 70%
- Herbicidal action (Digitaria sanguinalis; 40 g a.i./ha): 10%
- Herbicidal action (Digitaria sanguinalis; 120 g a.i./ha): 30%

Structure (SMILES): COc1cc(OC)nc(NC(=O)NS(=O)(=O)c2cc(CNS(C)(=O)=O)ccc2C(=O)O)n1 [(B2.37) Mesosulfuron]
- Herbicidal action 28 DAT against Centaurea cyanus (Centaurea cyano; 5 g of a.i./ha): 60%
- Herbicidal action 14 DAT against Matricaria inodora (Matricaria inodora; 15 g of a.i./ha): 75%
- Herbicidal action 28 DAT against Matricaria inodora (Matricaria inodora; 15 g of a.i./ha): 65%
- Herbicidal action 14 DAT against Lolium rigidum (resistant biotype) ([1]; 1.7 g of a.i./ha): 20%
- Herbicidal action 28 DAT against Lolium rigidum (resistant biotype) ([1]; 1.7 g of a.i./ha): 0%
- Herbicidal action 14 DAT against Lolium rigidum (resistant biotype) ([1]; 5 g of a.i./ha): 30%
- Herbicidal action 28 DAT against Lolium rigidum (resistant biotype) ([1]; 5 g of a.i./ha): 0%
- Herbicidal action 14 DAT against Lolium rigidum (resistant biotype) ([1]; 15 g of a.i./ha): 30%
- Herbicidal action 28 DAT against Lolium rigidum (resistant biotype) ([1]; 15 g of a.i./ha): 20%
- Herbicidal action 28 DAT against Phalaris minor (Phalaris minor [2]): 85%
- Herbicidal action 28 DAT against Alopecurus myosuroides (Alopecurus myosuroides [3]): 75%

Structure (SMILES): COCc1cnc(C2=NC(C)(C(C)C)C(=O)N2)c(C(=O)O)c1 (stereo not shown) [(B4.11) Imazamox]
- Herbicidal action 21 DAT [%] against Bidens pilosa (Bidens pilosa; 3.3 g of a.i./ha): 20%
- Herbicidal action 21 DAT [%] against Bidens pilosa (Bidens pilosa; 30 g of a.i./ha): 50%
- Herbicidal action 21 DAT [%] against Digitaria sanguinalis (Digitaria sanguinalis; 3.3 g of a.i./ha): 60%

Structure (SMILES): CCc1cnc(C2=NC(C)(C(C)C)C(=O)N2)c(C(=O)O)c1 (stereo not shown) [(B4.15) Imazethapyr]
- pest or weed control at 3.33 g/ha (Amaranthus palmeri; 3.33 g of a.i./ha, read-out: Herbicidal action 21 DAT [%] against Amaranthus palmeri): 0%
- pest or weed control at 10 g/ha (Amaranthus palmeri; 10 g of a.i./ha, read-out: Herbicidal action 21 DAT [%] against Amaranthus palmeri): 0%
- pest or weed control at 30 g/ha (Amaranthus palmeri; 30 g of a.i./ha, read-out: Herbicidal action 21 DAT [%] against Amaranthus palmeri): 10%
- Herbicidal action 21 DAT [%] against Bidens pilosa (Bidens pilosa; 3.33 g of a.i./ha): 0%
- Herbicidal action 21 DAT [%] against Bidens pilosa (Bidens pilosa; 10 g of a.i./ha): 0%
- Herbicidal action 21 DAT [%] against Bidens pilosa (Bidens pilosa; 30 g of a.i./ha): 25%

Structure (SMILES): Cc1nn(C)c(O)c1C(=O)c1ccc(C(F)(F)F)cc1S(C)(=O)=O [(B4.22) Pyrasulfotole]
- Herbicidal action in [%] 14 DAT against Poa annua L. (Poa annua; 5 g of a.i./ha): 0%
- Herbicidal action in [%] 28 DAT against Poa annua L. (Poa annua; 5 g of a.i./ha): 0%
- Herbicidal action in [%] 14 DAT against Poa annua L. (Poa annua; 15 g of a.i./ha): 0%
- Herbicidal action in [%] 28 DAT against Poa annua L. (Poa annua; 15 g of a.i./ha): 0%
- Herbicidal action in [%] 14 DAT against Poa annua L. (Poa annua; 45 g of a.i./ha): 0%
- Herbicidal action in [%] 28 DAT against Poa annua L. (Poa annua; 45 g of a.i./ha): 0%
- Herbicidal action in [%] 28 DAT against Centaurea cyanus (Centaurea cyano; 5 g of a.i./ha): 0%
- Herbicidal action in [%] 14 DAT against Centaurea cyanus (Centaurea cyano; 15 g of a.i./ha): 10%
- Herbicidal action in [%] 28 DAT against Centaurea cyanus (Centaurea cyano; 15 g of a.i./ha): 0%
- Herbicidal action in [%] 14 DAT against Centaurea cyanus (Centaurea cyano; 45 g of a.i./ha): 30%
- Herbicidal action in [%] 28 DAT against Centaurea cyanus (Centaurea cyano; 45 g of a.i./ha): 20%
- Herbicidal action in [%] 14 DAT against Matricaria inodora (Matricaria inodora; 5 g of a.i./ha): 20%
- Herbicidal action in [%] 28 DAT against Matricaria inodora (Matricaria inodora; 5 g of a.i./ha): 10%
- Herbicidal action in [%] 14 DAT against Alopecurus myosuroides (Alopecurus myosuroides [4]; 5 g of a.i./ha): 0%
- Herbicidal action in [%] 28 DAT against Alopecurus myosuroides (Alopecurus myosuroides [4]; 5 g of a.i./ha): 0%
- Herbicidal action in [%] 14 DAT against Alopecurus myosuroides (Alopecurus myosuroides [4]; 15 g of a.i./ha): 0%
- Herbicidal action in [%] 28 DAT against Alopecurus myosuroides (Alopecurus myosuroides [4]; 15 g of a.i./ha): 0%
- Herbicidal action in [%] 14 DAT against Alopecurus myosuroides (Alopecurus myosuroides [4]; 45 g of a.i./ha): 10%
- Herbicidal action in [%] 28 DAT against Alopecurus myosuroides (Alopecurus myosuroides [4]; 45 g of a.i./ha): 10%
- Herbicidal action in [%] 14 DAT against Bromus sterilis (Bromus sterilis; 5 g of a.i./ha): 0%
- Herbicidal action in [%] 14 DAT against Bromus sterilis (Bromus sterilis; 15 g of a.i./ha): 0%
- Herbicidal action in [%] 14 DAT against Bromus sterilis (Bromus sterilis; 45 g of a.i./ha): 10%
- Herbicidal action in [%] 14 DAT against Lolium rigidum (Lolium rigidum; 5 g of a.i./ha): 0%
- Herbicidal action in [%] 28 DAT against Lolium rigidum (Lolium rigidum; 5 g of a.i./ha): 0%
- Herbicidal action in [%] 14 DAT against Lolium rigidum (Lolium rigidum; 15 g of a.i./ha): 5%
- Herbicidal action in [%] 28 DAT against Lolium rigidum (Lolium rigidum; 15 g of a.i./ha): 0%
- Herbicidal action in [%] 14 DAT against Lolium rigidum (Lolium rigidum; 45 g of a.i./ha): 5%
- Herbicidal action in [%] 28 DAT against Lolium rigidum (Lolium rigidum; 45 g of a.i./ha): 10%
- Herbicidal action in [%] 14 DAT against Lolium rigidum (resistant biotype) ([5]; 5 g of a.i./ha): 5%
- Herbicidal action in [%] 28 DAT against Lolium rigidum (resistant biotype) ([5]; 5 g of a.i./ha): 0%
- Herbicidal action in [%] 14 DAT against Lolium rigidum (resistant biotype) ([5]; 15 g of a.i./ha): 5%
- Herbicidal action in [%] 28 DAT against Lolium rigidum (resistant biotype) ([5]; 15 g of a.i./ha): 0%
- Herbicidal action in [%] 14 DAT against Lolium rigidum (resistant biotype) ([5]; 45 g of a.i./ha): 10%
- Herbicidal action in [%] 14 DAT against Phalaris minor (Phalaris minor [6]; 5 g of a.i./ha): 0%
- Herbicidal action in [%] 28 DAT against Phalaris minor (Phalaris minor [6]; 5 g of a.i./ha): 0%
- Herbicidal action in [%] 14 DAT against Phalaris minor (Phalaris minor [6]; 15 g of a.i./ha): 0%
- Herbicidal action in [%] 28 DAT against Phalaris minor (Phalaris minor [6]; 15 g of a.i./ha): 0%

Structure (SMILES): C#CCN1C(=O)COc2cc(F)c(N3C(=O)C4=C(CCCC4)C3=O)cc21 [(B5.26) Flumioxazin]
- pest or weed control at 1.33 g/ha (Amaranthus palmeri; 21 DAT, 1.33 g of a.i./ha): 0%
- pest or weed control at 4 g/ha (Amaranthus palmeri; 21 DAT, 4 g of a.i./ha): 0%
- pest or weed control at 12 g/ha (Amaranthus palmeri; 21 DAT, 12 g of a.i./ha): 10%

Structure (SMILES): CCOC(=O)COc1ncccc1Oc1cc(-n2c(=O)cc(C(F)(F)F)n(C)c2=O)c(F)cc1Cl [(B9.14), ethyl [3-[2-chloro-4-fluoro-5-(1-methyl-6-trifluoromethyl-2,4-dioxo-1,2,3,4-tetrahydropyrimidin-3-yl)phenoxy]-2-pyridyloxy]acetate, reference compound]
- Herbicidal action in [%] 28 DAT against Poa annua (Poa annua; 5 g of a.i./ha): 80%
- Herbicidal action in [%] 28 DAT against Poa annua (Poa annua; 10 g of a.i./ha): 60%
- Herbicidal action in [%] 28 DAT against Centaurea cyano (Centaurea cyano; 2.5 g of a.i./ha, post-emergence): 90%
- Herbicidal action in [%] 28 DAT against Galium aparine (Galium aparine; 5 g of a.i./ha): 90%
- Herbicidal action in [%] 28 DAT against Galium aparine (Galium aparine; 10 g of a.i./ha): 90%
- Herbicidal action in [%] 28 DAT against Matricaria inodora (Matricaria inodora; 10 g of a.i./ha, post-emergence): 98%

Structure (SMILES): CC(C)N.O=C(O)CNCP(=O)(O)O [(CAS 38641-94-0)]
- Herbicidal action (Galium aparine; 28 DAT, 150 g a.i./ha): 40%
